Laboratory results from article PMC6796659, “Topoisomerase IB poisons induce histone H2A phosphorylation as a response to DNA damage in Leishmania infantum” (International Journal for Parasitology: Drugs and Drug …, 2019).
Like-named read-outs stand apart in the source and are kept apart here.

Columns and labels:
[1] = test system: histone H2A (Thr128) in L. infantum promastigotes; assay: Histone H2A phosphorylation (γH2A) by Western blot; format: cell-based, Leishmania infantum; conditions: 10 μM, 0, 15, 60, 120 min
Procedure: To detect H2A phosphorylation by L. infantum promastigotes, parasites in exponential growing phase (5–6 x 10^6 cells/mL) were incubated at 26 °C with CPT derivatives and indenoisoquinolines at a final concentration in the supplemented 199 standard medium of 10 μM. Control cells were treated with the drug vehicle DMSO using concentrations below 0.1%. After 0, 15, 60 and 120-min incubations, promastigotes were harvested by centrifugation, washed twice in PBS and the pellet resuspended in lysis buffer containing 50 mM Tris (pH:7), 50 mM NaCl, 20 mM NaF, 0.1% Tween 20 and 2x protease inhibitors (PIERCE™ protease inhibitor mini tablets). Twenty micrograms of the different extracts were loaded onto 15% SDS-PAGE gels, electrophoresed and transferred to PVDF membranes (Immobilon-FL, Millipore) using a mini trans-blot electrophoretic transfer cell (Bio-Rad). Polyclonal γH2A antisera were used at a 1:2000 dilution and secondary goat anti-rabbit IgG IRDye680 (Li-Cor Biosciences) was used at a 1:15000 dilution. The peptide competition assay was done incubating the polyclonal γH2A antisera with 50 ng/mL of the appropriate peptide (with and without phosphorylation at Thr residue) in blocking buffer for 1 h at room temperature before blotting. Loading control was performed using a monoclonal α tubulin mouse antibody at 2 μg/mL (final concentration) and a goat anti-mouse IgG IRDye 800 (Li-Cor Biosciences) as secondary antibody. Bands were visualized in an Odissey® (Li-Cor Biosciences) infrared detection facility. The quantification of γH2A signal was done with Bio-Rad Quantity One Analysis Software.

[2] = test system: iRFP L. infantum amastigotes infecting mouse splenocytes; conditions: ref Prada et al., 2013; cited from earlier work
[3] = test system: iRFP L. infantum promastigotes; assay: Antileishmanial activity on free-living iRFP L. infantum promastigotes (infrared fluorescence viability); format: cell-based; conditions: Leishmania infantum, 72 h, 26 °C
Procedure: Histone phosphorylation assays were performed in promastigotes of L. infantum BCN 150 strain, whereas the antiparasitic activity of the compounds was assessed on the transgenic strain that constitutively expresses the irfp gene encoding the infrared iRFP protein (iRFP L. infantum strain) ([Calvo-Álvarez et al., 2015]), which is derived from L. infantum BCN 150. Both strains were grown at 26 °C in M-199 medium (Gibco) supplemented with 25 mM HEPES pH 7.2, 0.1 mM adenine, 0.0005% (w/v) hemin, 2 μg/mL biopterin, 0.0001% (w/v) biotin, 10% (v/v) heat-inactivated fetal bovine serum (FBS) and an antibiotic cocktail comprising 50 U/mL penicillin and 50 μg/mL streptomycin.
(§1) The antileishmanial activity of the compounds was tested both in promastigotes and in amastigotes infecting mouse splenocytes. For this purpose, 384-well optical bottom black plates (Thermo Scientific) were seeded either with free-living iRFP L. infantum promastigotes or with splenic explants infected with iRFP L. infantum amastigotes, which were incubated at 26 °C or 37 °C, respectively. The viability of both iRFP L. infantum stages was measured by recording the fluorescence emitted by viable cells at 708 nm in an Odyssey (Li-Cor) infrared imaging system after a 72-h period of incubation with different concentrations of the compounds. Dose-response curves were obtained by plotting the infrared fluorescence emission of viable parasites vs. different concentrations of testing compounds and were fitted by nonlinear analysis using the Sigma-Plot 10.0 statistical package. The reduction of infrared emission with respect to the negative control was used to determine the 50% effective concentration to kill the parasites (EC50). Both controls and treated groups were tested with DMSO (drug vehicle) concentrations below 0.1%. All compounds and controls were assayed in triplicate.

[4] = test system: iRFP L. infantum amastigotes infecting mouse splenocytes; assay: Antileishmanial activity on iRFP L. infantum amastigotes in ex vivo murine splenic explants; format: cell-based, Leishmania infantum; conditions: for SI (Selectivity Index): CC50 (splenocytes)/EC50 (amastigotes); for EC50: Leishmania infantum, Splenocyte, splenic-infecting iRFP L. infantum amastigotes, 72 h, 37 °C, read-out: EC50 (μM) L. infantum amastigotes
Procedure: Five-week BALB/c female mice infected intraperitoneally with 1.5 × 10^9 metacyclic iRFP L. infantum promastigotes were sacrificed to eviscerate their spleens, which were processed to obtain a suspension of primary splenocytes. Briefly, freshly dissected spleens were washed with cold phosphate-buffered saline (PBS), cut in small pieces and incubated for 20 min with 5 mL of 2 mg/mL collagenase D (Sigma) prepared in buffer (10 mM HEPES, pH 7.4, 150 mM NaCl, 5 mM KCl, 1 mM MgCl2 and 1.8 mM CaCl2). Then, the cell suspension was passed through a 100 μm cell strainer, harvested by centrifugation (500×g for 7 min at 4 °C), washed twice with PBS, and resuspended in RPMI medium (Gibco) supplemented with 10 mM HEPES, 1 mM sodium pyruvate, 1xRPMI 1640 vitamin mix, 10% (v/v) FBS, 50 U/mL penicillin and 50 μg/mL streptomycin. The cell suspension was cultured in 384-well optical bottom black plates (Thermo Scientific) at 37 °C under 5% CO2 atmosphere.
as §1

[5] = Cytotoxicity on uninfected mouse splenocytes (Alamar Blue); format: cell-based; conditions: BALB/c, freshly isolated uninfected mouse splenocytes, non-infected mouse splenocytes, read-out: CC50 (μM) Murine Splenocytes
Procedure: Finally, the cytotoxicity of the compounds was assessed on freshly-isolated mouse splenocytes, which were obtained from uninfected BALB/c mice according to the protocol previously described. Viability of uninfected splenocytes was used to determine the cytotoxic concentration 50 (CC50) by means of the Alamar Blue staining method, according to manufacturer's recommendations (Invitrogen). Selectivity index (SI) for each compound was calculated as the ratio between the CC50 value obtained for splenic cells and the EC50 value for amastigotes.

[6] = test system: Leishmania topoisomerase IB (LTopIB); assay: Relaxation of supercoiled pSK DNA by recombinant LTopIB; format: biochemical
Procedure: (§2) Expression and purification of LTopIB and hTopIB were carried out according to a previously standardized protocol ([Villa et al., 2003]). The effect of indenoisoquinolines (compounds 1 to 20) on recombinant LTopIB and hTopIB was determined by measuring the relaxation of negatively supercoiled pBluescript-SK DNA plasmid (pSK). Briefly, in a total volume of 20 μL, 100 U of recombinant TopIB were incubated with 0.5 μg of pSK DNA in 10 mM Tris-HCl buffer (pH 7.5), 5 mM MgCl2, 5 mM dithiothreitol (DTT), 0.1 mM EDTA, […] bovine serum albumin, and 150 mM KCl. Different concentrations of indenoisoquinolines were also added. Following a 4-min incubation period at 25 °C, reactions were stopped with 1% (w/v) SDS, and incubated for one extra hour at 37 °C in the presence of 1 mg/mL proteinase K. Subsequently, samples were extracted with 1 vol phenol-chloroform mixture and were loaded on a 1% agarose gel containing 0.1 μg/mL ethidium bromide. The gel was run for 16 h at 4 V/cm, and the images were acquired using a G-Box system (Syngene, United Kingdom).

human Top IB (hTopIB) = biological target: T1, human Top IB (hTopIB) (Homo sapiens, UniProt P11387); assay: Relaxation of supercoiled pSK DNA by recombinant hTopIB; format: biochemical
T1 construct: made in house
T1 sequence (P11387 1-765): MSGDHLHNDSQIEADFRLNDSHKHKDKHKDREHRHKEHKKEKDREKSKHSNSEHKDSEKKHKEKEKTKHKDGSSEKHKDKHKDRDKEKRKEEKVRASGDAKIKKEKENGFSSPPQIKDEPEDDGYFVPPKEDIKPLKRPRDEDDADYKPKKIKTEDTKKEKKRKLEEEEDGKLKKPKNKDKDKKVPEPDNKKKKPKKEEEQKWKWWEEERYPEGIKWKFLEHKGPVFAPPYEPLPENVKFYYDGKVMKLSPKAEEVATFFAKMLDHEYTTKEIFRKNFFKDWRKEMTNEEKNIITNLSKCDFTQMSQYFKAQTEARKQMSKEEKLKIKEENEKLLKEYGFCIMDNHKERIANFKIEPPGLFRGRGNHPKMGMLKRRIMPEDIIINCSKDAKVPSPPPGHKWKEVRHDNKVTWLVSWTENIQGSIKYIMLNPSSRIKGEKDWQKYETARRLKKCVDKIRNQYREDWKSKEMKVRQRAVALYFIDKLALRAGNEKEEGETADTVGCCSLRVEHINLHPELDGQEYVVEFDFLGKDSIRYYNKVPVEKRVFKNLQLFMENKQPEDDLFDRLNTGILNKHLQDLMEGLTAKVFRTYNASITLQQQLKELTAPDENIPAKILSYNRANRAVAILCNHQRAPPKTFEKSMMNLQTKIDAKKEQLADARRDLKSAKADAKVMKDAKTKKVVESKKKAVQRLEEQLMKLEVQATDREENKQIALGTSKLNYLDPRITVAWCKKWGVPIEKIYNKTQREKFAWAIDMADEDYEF
Procedure: as §2

[7] = test system: L. infantum promastigotes; assay: Cell cycle analysis by flow cytometry (propidium iodide); format: cell-based, Leishmania infantum; conditions: 1 μM single dose, 0, 8, 24, 48 h
Procedure: One million promastigotes untreated or treated with 1 μM of different indenoisoquinolines were harvested by centrifugation after 0, 8, 24 and 48 h exposure. Promastigotes were washed twice with PBS and fixed by 1 h incubation with 70% methanol at 4 °C. After incubation, cells were centrifuged, washed again with PBS and resuspended in 0.5 mL of citrate buffer (45 mM MgCl2, 20 mM MOPS, 30 mM sodium citrate, 0.1% Triton X-100, pH = 7). Finally, samples with RNAase (50 μg/mL) and propidium iodide ([…]) were incubated at 37 °C during 30 min and analyzed at 589 nm by flow cytometry (Cyan ADP Dako).

[8] = test system: TopIB-DNA complexes in L. infantum promastigotes; assay: SDS/K-DNA precipitation (in situ cleavage complex formation); format: cell-based, Leishmania infantum; conditions: 30 min exposure, promastigotes
Procedure: In order to measure the fragmentation of DNA induced by Top poisons, L. infantum promastigotes, previously labeled with 0.5 mCi/mL [2–^14C] thymidine for 24 h, were exposed to different concentrations of indenoisoquinolines for 30 min, followed by precipitation with SDS/KCl, according to the method described previously ([Balaña-Fouce et al., 2012]). DNA fragmentation was determined as the percentage of total labeled DNA, and was calculated as follows: [(dpm in SDS/KCl drug - dpm in SDS/KCl solvent)/(dpm total incorporation)] x 100. Each experiment was run at least in triplicate.

Q: For CC[C@@]1(O)C(=O)OCc2c1cc1n(c2=O)Cc2cc3ccccc3nc2-1 [CPT, camptothecin], which “γH2A signal (H2A phosphorylation), Western blot” value (from here on “γH2A signal”) [1] is on record?
A: clear increase in the intensity of the 14-kDa band

Q: What about the EC50 [2] of the same molecule?
A: 30 nM

Q: For NCCCn1c2c(c3ccc([N+](=O)[O-])cc3c1=O)C(=O)c1cc(F)ccc1-2 [Compound 7], which EC50 [3] is on record?
A: 1.28 ± 0.08 µM

Q: What about the “SI (Selectivity Index)” value [4] of the same molecule?
A: 8.4

Q: And the EC50 [4]?
A: 0.04 µM

Q: And the CC50 [5]?
A: 0.3 ± 0.07 µM

Q: What about the LTopIB inhibition ([6]; Table 1) of the same molecule?
A: ++ (inhibition at 10 μM)

Q: What about the hTopIB inhibition (human Top IB (hTopIB); Table 1) of the same molecule?
A: +++ (inhibition at 1 μM)

Q: What about the “effect on cell cycle of promastigotes” value [7] of the same molecule?
A: arrested the cell cycle of promastigotes in S phase

Q: And the “maximum percentage of SDS/K-DNA precipitable complexes” value [8]?
A: 33%

Q: With COc1cnc2c(c1)C(=O)c1c-2n(CCCN2CCOCC2)c(=O)c2ccc(OC)cc12 [Compound 17] as the molecule, how does the EC50 [3] read?
A: 2.92 ± 0.44 µM

Q: What about the “SI (Selectivity Index)” value [4] of the same molecule?
A: 29.0

Q: What about the EC50 [4] of the same molecule?
A: 0.27 ± 0.08 µM

Q: And the CC50 [5]?
A: 7.84 ± 0.77 µM

Q: What about the LTopIB inhibition ([6]; Table 3) of the same molecule?
A: +++ (inhibition at 1 μM)

Q: What about the hTopIB inhibition (human Top IB (hTopIB); Table 3) of the same molecule?
A: +++ (inhibition at 1 μM)

Q: And the “effect on cell cycle of promastigotes” value [7]?
A: arrested the cell cycle of promastigotes in S phase

Q: With COc1cnc2c(c1)C(=O)c1c-2n(CCCN2CCOCC2)c(=O)c2cc(OC)c(OC)cc12 [Compound 18] as the molecule, how does the EC50 [3] read?
A: 0.53 ± 0.07 µM

Q: What about the “SI (Selectivity Index)” value [4] of the same molecule?
A: 29.3

Q: What about the EC50 [4] of the same molecule?
A: 0.13 ± 0.01 µM

Q: And the CC50 [5]?
A: 3.81 ± 0.51 µM

Q: And the LTopIB inhibition ([6]; Table 3)?
A: ++ (inhibition at 10 μM)

Q: And the hTopIB inhibition (human Top IB (hTopIB); Table 3)?
A: ++ (inhibition at 10 μM)

Q: And the “effect on cell cycle of promastigotes” value [7]?
A: arrested the cell cycle of promastigotes in S phase

Q: With CCc1c2c(nc3ccc(O)cc13)-c1cc3c(c(=O)n1C2)COC(=O)[C@]3(O)CC [SN38] as the molecule, how does the “γH2A signal” value [1] read?
A: clear increase in the intensity of the 14-kDa band

Q: For CC[C@@]1(O)C(=O)OCc2c1cc1n(c2=O)Cc2cc3c(CN(C)C)c(O)ccc3nc2-1 [TPT, topotecan], which “γH2A signal” value [1] is on record?
A: clear increase in the intensity of the 14-kDa band
